The text below walks through data of US20210355539A1, “BIOMARKERS FROM MINIMALLY INVASIVE SAMPLING REFLECTIVE OF THE PLACENTAL IMMUNE MICROENVIRONMENT” (NEW YORK UNIVERSITY, priority 2020, published 2021).

For one assay, the system named is term placental explants. Nature of the assay: Term placental explants treated with LPS and Cytochalasin-D, TNF-α ELISA. In kind it is cell-based, human. The note with it: 2 LPS doses and Cytochalasin-D (9.8 uM). From the text: Human first and second trimester placentas from elective termination of normal pregnancies (8 to 23 weeks gestation) were collected. The second trimester placenta samples were obtained after elective terminations induced by mechanical evacuation only. Human first and second trimester and term placentas were also collected from vaginal delivery or C-section. A placental explant system was used to preserve the normal cellular architecture. Placental samples from term and third trimester were collected from the maternal side as previously described (Kim et al., 2018, Am J Reprod Immunol, December 26: e13080). Placental explants were processed immediately after collection and prepared as previously described (Peltier et al., 2013, Am J Reprod Immunol, 69: 142e149). […]
Supernatant cytokine concentrations were analyzed using Ready-Set-Go™ ELISA kits (eBioscience; San Diego, Calif.). The measured cytokines included TNF-a, IL-1b and IL-10 and the concentrations were expressed in pg/ml.
For this reason, the kit was utilized for all of the following experiments to isolate EVs. […] Media were collected and analyzed. […] THP-1 cell culture media was collected after 24 h, and TNF-α levels were analyzed by ELISA (FIG. 2E). […]

A further assay concerns human placenta. The note with it: cited from earlier work.

Where two headings read alike, the source gives them in different places.

Regarding `C=C1[C@@H](C)[C@H]2[C@H](Cc3ccccc3)NC(=O)[C@]23[C@H](OC(C)=O)/C=C/[C@@](C)(O)C(=O)[C@@H](C)C/C=C/[C@H]3[C@@H]1O` [Cytoclasin-D, Cytochalasin-D], the TNF-α production with term placental explants was 18979 ± 7626 pg/mL.
Consider `CC(=O)CCCCn1c(=O)c2c(ncn2C)n(C)c1=O` [Pentoxixyline, pentoxifylline], for which the “effect on LPS induced inflammation and TNF-α production” value in the assay with human placenta (Speer et al., 2017, listed as pentoxifylline) is “inhibits LPS induced TNF-α”; in the assay on human placenta (Speer et al., 2017), “inhibited LPS induced inflammation and TNF-α production”.
